Source: patent publication US7994209B2, “3-phenoxymethylpyrrolidine compounds” (Theravance, Inc., priority 2009, dated 2011)

Legend:
hNET [1] = target: T1, hNET (Homo sapiens, UniProt P23975); assay: hNET neurotransmitter uptake assay (3H-NE), Assay 2; type: cell-based; design: expressed in transfected cells; host or cells: HEK-293; settings: norepinephrine reuptake inhibition, 3H-NE uptake, HEK-293 hNET cells (values without asterisk); read-out: NET pIC50 (converted)
hSERT [2] = target: T2, hSERT (Homo sapiens, UniProt P31645); assay: hSERT neurotransmitter uptake assay (3H-5-HT), Assay 2; type: cell-based; design: expressed in transfected cells; host or cells: HEK-293; settings: serotonin reuptake inhibition, 3H-5-HT uptake, HEK-293 hSERT cells (values without asterisk); read-out: SERT pIC50 (converted)
T2 sequence (P31645 whole entry): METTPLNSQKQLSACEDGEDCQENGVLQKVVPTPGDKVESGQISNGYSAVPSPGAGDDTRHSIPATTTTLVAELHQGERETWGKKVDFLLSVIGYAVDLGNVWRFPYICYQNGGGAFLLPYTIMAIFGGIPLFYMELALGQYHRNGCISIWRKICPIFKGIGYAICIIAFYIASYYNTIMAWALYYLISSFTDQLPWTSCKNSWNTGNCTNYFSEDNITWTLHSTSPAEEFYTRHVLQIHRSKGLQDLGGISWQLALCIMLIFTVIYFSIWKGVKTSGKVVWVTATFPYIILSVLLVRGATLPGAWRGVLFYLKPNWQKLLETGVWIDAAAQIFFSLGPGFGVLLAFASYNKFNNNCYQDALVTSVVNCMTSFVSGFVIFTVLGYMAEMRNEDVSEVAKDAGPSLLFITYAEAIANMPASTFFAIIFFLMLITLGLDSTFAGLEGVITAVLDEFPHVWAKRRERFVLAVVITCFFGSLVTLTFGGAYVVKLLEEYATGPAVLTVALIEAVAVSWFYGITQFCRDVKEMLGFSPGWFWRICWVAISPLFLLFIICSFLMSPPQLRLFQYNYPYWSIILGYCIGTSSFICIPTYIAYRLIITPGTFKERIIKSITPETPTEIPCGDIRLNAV

hSERT [3] = target: T2, hSERT; assay: hSERT membrane radioligand binding assay (3H-citalopram), Assay 1; settings: SERT pKi, hSERT HEK-293 membranes, 1.0 nM 3H-citalopram; values given as lower bounds
hNET [4] = target: T1, hNET; assay: hNET membrane radioligand binding assay (3H-nisoxetine), Assay 1

T1 sequence (P23975 whole entry): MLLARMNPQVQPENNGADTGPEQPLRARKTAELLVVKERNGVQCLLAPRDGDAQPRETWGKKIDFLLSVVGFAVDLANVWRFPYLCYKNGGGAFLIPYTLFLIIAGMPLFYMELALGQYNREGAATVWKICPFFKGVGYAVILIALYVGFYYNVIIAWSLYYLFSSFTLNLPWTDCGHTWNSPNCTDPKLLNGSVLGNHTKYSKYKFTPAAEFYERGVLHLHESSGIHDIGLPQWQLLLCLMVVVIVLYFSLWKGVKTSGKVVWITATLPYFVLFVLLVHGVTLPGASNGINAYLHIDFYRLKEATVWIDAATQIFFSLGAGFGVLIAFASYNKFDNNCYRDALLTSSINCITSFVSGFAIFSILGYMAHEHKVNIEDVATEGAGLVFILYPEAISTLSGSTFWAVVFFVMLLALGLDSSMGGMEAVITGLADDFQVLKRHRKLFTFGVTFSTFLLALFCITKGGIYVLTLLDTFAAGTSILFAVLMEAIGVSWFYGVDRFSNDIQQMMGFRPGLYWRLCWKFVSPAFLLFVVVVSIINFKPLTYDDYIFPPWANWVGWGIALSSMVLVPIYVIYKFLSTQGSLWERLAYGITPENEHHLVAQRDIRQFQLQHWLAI

CC(C)CC(Oc1c(F)ccc(F)c1Cl)C1CCNC1 (stereo not drawn) [Example 10-62, 3-[1-(2-Chloro-3,6-difluorophenoxy)-3-methylbutyl]pyrrolidine]
≤ 10 nM: IC50 (hNET [1]) | IC50 (hSERT [2]) | Ki (hSERT [3]) | Ki (hNET [4])

CC(C)CC(Oc1c(F)ccc(Cl)c1Cl)C1CCNC1 (stereo not drawn) [Example 10-64, 3-[1(2,3-Dichloro-6-fluorophenoxy)-3-methylbutyl]pyrrolidine]
≤ 10 nM: IC50 (hNET [1]) | IC50 (hSERT [2]) | Ki (hSERT [3]) | Ki (hNET [4])

CC(C)CC(Oc1c(F)cc(Cl)cc1F)C1CCNC1 (stereo not drawn) [Example 10-66, 3-[1-(4-Chloro-2,6-difluorophenoxy)-3-methylbutyl]pyrrolidine]
≤ 10 nM: IC50 (hNET [1]) | IC50 (hSERT [2]) | Ki (hSERT [3]) | Ki (hNET [4])

CC(C)C[C@H](Oc1ccc(Cl)c(F)c1F)[C@H]1CCNC1 [Example 10-68, (S)-3-[(S)-1-(4-Chloro-2,3-difluorophenoxy)-3-methylbutyl]pyrrolidine]
≤ 10 nM: IC50 (hNET [1]) | IC50 (hSERT [2]) | Ki (hSERT [3]) | Ki (hNET [4])

CC(C)C[C@H](Oc1c(Cl)ccc(Cl)c1F)[C@H]1CCNC1 [Example 10-69, (S)-3-[(S)-1-(3,6-Dichloro-2-fluorophenoxy)-3-methylbutyl]pyrrolidine]
≤ 10 nM: IC50 (hNET [1]) | IC50 (hSERT [2]) | Ki (hSERT [3]) | Ki (hNET [4])

CC(C)CC(Oc1ccc(Cl)c(F)c1)C1CCNC1 (stereo not drawn) [Example 10-70, 3-[1-(4-Chloro-3-fluorophenoxy)-3-methylbutyl]pyrrolidine]
≤ 10 nM: IC50 (hNET [1]) | IC50 (hSERT [2]) | Ki (hSERT [3]) | Ki (hNET [4])

CC(C)C[C@@H](Oc1ccc(Cl)c(Cl)c1)[C@H]1CCNC1 [Example 10-73, (S)-3-[(R)-1-(3,4-Dichlorophenoxy)-3-methylbutyl]pyrrolidine]
≤ 10 nM: IC50 (hNET [1]) | IC50 (hSERT [2]) | Ki (hSERT [3]) | Ki (hNET [4])

CC(C)C[C@H](Oc1cc(Cl)cc(Cl)c1)[C@H]1CCNC1 [Example 10-77, (S)-3-[(S)-1-(3,5-Dichlorophenoxy)-3-methylbutyl]pyrrolidine]
≤ 10 nM: IC50 (hNET [1]) | IC50 (hSERT [2]) | Ki (hSERT [3]) | Ki (hNET [4])

CC(C)CC(Oc1cc(Cl)cc(Cl)c1)C1CCNC1 (stereo not drawn) [Example 10-78, 3-[1-(3,5-Dichlorophenoxy)-3-methylbutyl]pyrrolidine]
≤ 10 nM: IC50 (hNET [1]) | IC50 (hSERT [2]) | Ki (hSERT [3]) | Ki (hNET [4])

CC(C)C[C@@H](Oc1cc(Cl)cc(Cl)c1)[C@H]1CCNC1 [Example 10-79, (S)-3-[(R)-1-(3,5-Dichlorophenoxy)-3-methylbutyl]pyrrolidine]
≤ 10 nM: IC50 (hNET [1]) | IC50 (hSERT [2]) | Ki (hSERT [3]) | Ki (hNET [4])

CC(C)C[C@H](Oc1cc(F)cc(Cl)c1)[C@H]1CCNC1 [Example 10-81, (S)-3-[(S)-1-(3-Chloro-5-fluorophenoxy)-3-methylbutyl]pyrrolidine]
≤ 10 nM: IC50 (hNET [1]) | IC50 (hSERT [2]) | Ki (hSERT [3]) | Ki (hNET [4])

CC(C)CC(Oc1cc(F)cc(Cl)c1)C1CCNC1 (stereo not drawn) [Example 10-82, 3-[1-(3-Chloro-5-fluorophenoxy)-3-methylbutyl]pyrrolidine]
≤ 10 nM: IC50 (hNET [1]) | IC50 (hSERT [2]) | Ki (hSERT [3]) | Ki (hNET [4])

CC(C)CC(Oc1c(Cl)c(F)cc(F)c1Cl)C1CCNC1 (stereo not drawn) [Example 10-84, 3-[1-(2,6-Dichloro-3,5-difluorophenoxy)-3-methylbutyl]pyrrolidine]
≤ 10 nM: IC50 (hNET [1]) | IC50 (hSERT [2]) | Ki (hSERT [3]) | Ki (hNET [4])

CC(C)C[C@H](Oc1c(F)c(F)cc(F)c1Cl)[C@H]1CCNC1 [Example 10-86, (S)-3-[(S)-1-(2-Chloro-3,5,6-trifluorophenoxy)-3-methylbutyl]pyrrolidine]
≤ 10 nM: IC50 (hNET [1]) | IC50 (hSERT [2]) | Ki (hSERT [3]) | Ki (hNET [4])

CC[C@H](Oc1cccc2ccccc12)[C@H]1CCNC1 [Example 13, (S)-3-[(s)-1-(Naphthalen-1-yloxy)propyl]pyrrolidine]
≤ 10 nM: IC50 (hNET [1]) | IC50 (hSERT [2]) | Ki (hSERT [3]) | Ki (hNET [4])

CC[C@@H](Oc1cccc2ccccc12)[C@H]1CCNC1 [Example 14-1, (S)-3-[(R)-1-(Naphthalen-1-yloxy)propyl]pyrrolidine]
≤ 10 nM: IC50 (hNET [1]) | IC50 (hSERT [2]) | Ki (hSERT [3]) | Ki (hNET [4])

CCC[C@@H](Oc1cccc2ccccc12)[C@H]1CCNC1 [Example 14-2, (S)-3-[(R)-1-(Naphthalen-1-yloxy)butyl]pyrrolidine]
≤ 10 nM: IC50 (hNET [1]) | IC50 (hSERT [2]) | Ki (hSERT [3]) | Ki (hNET [4])

CCC[C@H](Oc1cccc2ccccc12)[C@H]1CCNC1 [Example 14-3, (S)-3-[(S)-1-(Naphthalen-1-yloxy)butyl]pyrrolidine]
≤ 10 nM: IC50 (hNET [1]) | IC50 (hSERT [2]) | Ki (hSERT [3]) | Ki (hNET [4])
